The source of these data is patent publication US20250171459A1, “2-METHYL-4',5'-DIHYDROSPIRO[PIPERIDINE-4,7'-THIENO[2,3-C]PYRAN] DERIVATIVES AS INHIBITORS OF APOL1 AND METHODS OF USING SAME” (Vertex Pharmaceuticals Incorporated, priority 2022, published 2025).

The target of this assay is T1, APOL1 (Homo sapiens, UniProt O14791).
T1 sequence (O14791 1-398 S342G/I384M): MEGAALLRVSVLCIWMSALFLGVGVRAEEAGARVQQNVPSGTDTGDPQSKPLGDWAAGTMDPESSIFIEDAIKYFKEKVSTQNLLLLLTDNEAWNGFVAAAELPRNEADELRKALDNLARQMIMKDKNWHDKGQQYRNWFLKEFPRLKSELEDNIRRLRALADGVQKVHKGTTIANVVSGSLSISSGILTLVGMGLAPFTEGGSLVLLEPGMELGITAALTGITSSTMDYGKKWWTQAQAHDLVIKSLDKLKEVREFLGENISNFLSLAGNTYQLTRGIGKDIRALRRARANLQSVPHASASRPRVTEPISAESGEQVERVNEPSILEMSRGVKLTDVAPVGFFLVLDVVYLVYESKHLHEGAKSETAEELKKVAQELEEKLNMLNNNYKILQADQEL
The assay is described as follows: MultiTox-Fluor Multiplex Cytotoxicity Assay in tet-inducible APOL1 T-REx-HEK293 cells (cell rescue, ratio of dead to live cells). In kind it is cell-based. To be noted: tet-inducible transgenic APOL1 T-REx-HEK293 cell lines, 50 ng/mL tet, 24 hours; read-out: IP50 (i.e., IC50 for cell proliferation). A digest of the protocol:
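T-REx-HEK293 cells with tet-inducible APOL1 were treated with compound (10 μM top, 10-point 3-fold dilution, duplicate) plus 50 ng/mL tetracycline for 24 h at 37° C, in DMEM with 2% tet-free FBS. MultiTox-Fluor protease signals gave a dead/live ratio, normalized to no tet (100% viability) and tet alone (0%).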

With `C[C@H]1C[C@@]2(CCN1C1COCC1O)OCCc1cc(CC(F)F)sc12` (stereo partly drawn) [Compound 597], the IC50 was less than 100 nM.
`C[C@H]1C[C@@]2(CCN1C[C@@H](O)CO)OCCc1cc(CC(F)F)sc12` [Compound 598]: the IC50 lay in the range of 100 to 500 nM.
Under `C[C@H]1C[C@@]2(CCN1CCO)OCCc1cc(CC(F)F)sc12` [Compound 599] stands 100 to 500 nM.
Consider `C[C@H]1C[C@@]2(CCN1CC1(O)CCOCC1)OCCc1cc(CC(F)F)sc12` [Compound 600], for which the IC50 lay within 100 to 500 nM.
Next, `C[C@H]1C[C@@]2(CCN1CC(O)C(F)(F)F)OCCc1cc(CC(F)F)sc12` (stereo partly drawn) [Compound 601]: less than 100 nM; `C[C@H]1C[C@@]2(CCN1CC(O)c1ccc(F)cc1)OCCc1cc(CC(F)F)sc12` (stereo partly drawn) [Compound 602]: less than 100 nM.
Turning to `C[C@H]1C[C@@]2(CCN1CC(C)(C)O)OCCc1cc(CC(F)F)sc12` [Compound 603], the IC50 lay within 100 to 500 nM.
Next, `C[C@H]1C[C@@]2(CCN1C1CCCC1O)OCCc1cc(CC(F)F)sc12` (stereo partly drawn) [Compound 604]: 100 to 500 nM.
For `C[C@H]1C[C@@]2(CCN1CC(O)c1ccc(F)c(F)c1)OCCc1cc(CC(F)F)sc12` (stereo partly drawn) [Compound 605], the IC50 lay in the range of 100 to 500 nM.
Under `C[C@H]1C[C@@]2(CCN1CC1(O)CCS(=O)(=O)CC1)OCCc1cc(CC(F)F)sc12` [Compound 606] stands 100 to 500 nM; under `C[C@H]1C[C@@]2(CCN1C[C@H](O)CO)OCCc1cc(CC(F)F)sc12` [Compound 607], 100 to 500 nM; under `C[C@H]1C[C@@]2(CCN1C1COCC1O)OCCc1cc(CC(F)F)sc12` (stereo partly drawn) [Compound 609], less than 100 nM.
Next, `C[C@H]1C[C@@]2(CCN1C[C@@H](O)C(N)=O)OCCc1cc(CC(F)F)sc12` [Compound 610, (2R)-3-[(2′S, 7R)-2-(2,2-difluoroethyl)-2′-methyl-spiro[4,5-dihydrothieno[2,3-c]pyran-7,4′-piperidine]-1′-yl]-2-hydroxy-propanamide]: less than 100 nM; `C[C@H]1C[C@@]2(CCN1C[C@H](O)C(N)=O)OCCc1cc(CC(F)F)sc12` [Compound 611, (2S)-3-[(2′S, 7R)-2-(2,2-difluoroethyl)-2′-methyl-spiro[4,5-dihydrothieno[2,3-c]pyran-7,4′-piperidine]-1′-yl]-2-hydroxy-propanamide]: less than 100 nM.
In the case of `CNC(=O)[C@@H](O)CN1CC[C@]2(C[C@@H]1C)OCCc1cc(CC(F)F)sc12` [Compound 612, (2S)-3-[(2′S, 7R)-2-(2,2-difluoroethyl)-2′-methyl-spiro[4,5-dihydrothieno[2,3-c]pyran-7,4′-piperidine]-1′-yl]-2-hydroxy-N-methyl-propanamide], the IC50 lay in the range of 100 to 500 nM.
Next, `CC(O)CN1CC[C@]2(C[C@@H]1C)OCCc1cc(CC(F)F)sc12` (stereo partly drawn) [Compound 613, 1-((2S,4R)-2′-(2,2-difluoroethyl)-2-methyl-4′,5′-dihydrospiro[piperidine-4,7′-thieno[2,3-c]pyran]-1-yl)propan-2-ol]: 100 to 500 nM; `COCCN1CC[C@]2(C[C@@H]1C)OCCc1cc(CC(F)F)sc12` [Compound 614]: 100 to 500 nM.
For the compound `C[C@H]1C[C@@]2(CCN1CCCO)OCCc1cc(CC(F)F)sc12` [Compound 615], the IC50 was 100 to 500 nM.
Next, `C[C@H]1C[C@@]2(CCN1CC(F)F)OCCc1cc(CC(F)F)sc12` [Compound 616]: 500 to 1000 nM.
For `C[C@H]1C[C@@]2(CCN1CC1CC1(F)F)OCCc1cc(CC(F)F)sc12` (stereo partly drawn) [Compound 617], the IC50 is less than 100 nM.
Under `Cc1nc(CN2CC[C@]3(C[C@@H]2C)OCCc2cc(CC(F)F)sc23)c(C)o1` [Compound 618] stands 500 to 1000 nM.
Regarding `C[C@H]1C[C@@]2(CCN1CC1CCC(=O)N1)OCCc1cc(CC(F)F)sc12` (stereo partly drawn) [Compound 619], the IC50 was 100 to 500 nM.
Next, `C[C@H]1C[C@@]2(CCN1CCC(C)(C)O)OCCc1cc(CC(F)F)sc12` [Compound 620]: 100 to 500 nM.
Under `C[C@H]1C[C@@]2(CCN1CC1CNC(=O)C1)OCCc1cc(CC(F)F)sc12` (stereo partly drawn) [Compound 621] stands less than 100 nM.
